Data published in US8367668B2, “Pyridazinone derivatives” (Merck Patent Gesellschaft mit Beschränkter Haftung, priority 2007, dated 2013).

What follows are compounds tested against T1, Met kinase (Homo sapiens, UniProt P08581) (assay: Met kinase inhibition (enzyme assay), flashplate method).
T1 construct: 6His (N); purchased Upstate 14-526; host or cells: Sf21 insect cells (S. frugiperda), baculovirus
Type: biochemical
Description: Measurement of Met Kinase Activity
According to the manufacturer's data (Met, active, upstate, catalogue No. 14-526), Met kinase is expressed for the purposes of protein production in insect cells (Sf21; S. frugiperda) and subsequent affinity-chromatographic purification as “N-terminal 6His-tagged” recombinant human protein in a baculovirus expression vector.
The kinase activity can be measured using various available measurement systems. In the scintillation proximity method (Sorg et al., J. of Biomolecular Screening, 2002, 7, 11-19), the flashplate method or the filter binding test, the radioactive phosphorylation of a protein or peptide as substrate is measured using radioactively labelled ATP (^32P-ATP, ^33P-ATP). In the case of the presence of an inhibitory compound, a reduced radioactive signal, or none at all, can be detected. Furthermore, homogeneous time-resolved fluorescence resonance energy transfer (HTR-FRET) and fluoroescence polarisation (FP) technologies can be used as assay methods (Sills et al., J. of Biomolecular Screening, 2002, 191-214).
Flashplate Method (Met Kinase)
The test plates used are 96-well Flashplate® microtitre plates from Perkin Elmer (Cat. No. SMP200). The components of the kinase reaction described below are pipetted into the assay plate. The Met kinase and the substrate poly Ala-Glu-Lys-Tyr, (pAGLT, 6:2:5:1), are incubated for 3 hrs at room temperature with radioactively labelled ^33P-ATP in the presence and absence of test substances in a total volume of 100 μl. The reaction is terminated using 150 μl of a 60 mM EDTA solution. After incubation for a further 30 min at room temperature, the supernatants are filtered off with suction, and the wells are washed three times with 200 μl of 0.9% NaCl solution each time. The measurement of the bound radioactivity is carried out by means of a scintillation measuring instrument (Topcount NXT, Perkin-Elmer).
The full value used is the inhibitor-free kinase reaction. This should be approximately in the range 6000-9000 cpm. The pharmacological zero value used is staurosporin in a final concentration of 0.1 mM. The inhibitory values (IC50) are determined using the RS1_MTS program.
Kinase reaction conditions per well: • 30 μl of assay buffer • 10 μl of substance to be tested in assay buffer with 10% of DMSO • 10 μl of ATP (final concentration 1 μM cold, 0.35 μCi of ^33P-ATP) • 50 μl of Met kinase/substrate mixture in assay buffer; • (10 ng of enzyme/well, 50 ng of pAGLT/well)
50 mM HEPES • 3 mM magnesium chloride • 3 μM sodium orthovanadate • 3 mM manganese(II) chloride • 1 mM dithiothreitol (DTT)
pH=7.5 (to be set using sodium hydroxide)
60 mM Titriplex III (EDTA)
Met kinase: Upstate, Cat. No. 14-526, Stock 1 μg/10 μl; spec. activity 954 U/mg;
Poly-Ala-Glu-Lys-Tyr, 6:2:5:1: Sigma Cat. No. P1152
Pharmacological Data Met Kinase Inhibitions (Enzyme Assay)

T1 sequence (P08581 974-1390 limits assumed): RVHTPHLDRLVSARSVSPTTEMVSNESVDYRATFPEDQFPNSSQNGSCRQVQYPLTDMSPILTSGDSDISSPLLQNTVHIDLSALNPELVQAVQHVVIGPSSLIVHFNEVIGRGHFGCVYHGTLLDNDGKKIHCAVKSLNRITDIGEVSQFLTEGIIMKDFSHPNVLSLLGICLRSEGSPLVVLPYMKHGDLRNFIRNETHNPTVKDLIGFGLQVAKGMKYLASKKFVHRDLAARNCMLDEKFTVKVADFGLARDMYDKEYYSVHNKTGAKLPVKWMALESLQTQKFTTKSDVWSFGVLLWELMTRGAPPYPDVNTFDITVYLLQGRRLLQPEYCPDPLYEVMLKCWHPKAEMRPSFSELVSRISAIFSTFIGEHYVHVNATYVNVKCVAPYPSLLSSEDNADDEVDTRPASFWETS

IC50, 10 to 1000 nM:
CCOC(=O)Nc1cccc(Cn2nc(-c3ccc(C(=O)NCCO)cc3)ccc2=O)c1 [A2, ethyl(3-{3-[4-(2-hydroxyethylcarbamoyl)phenyl]-6-oxo-6H-pyridazin-1-ylmethyl}phenyl)carbamate]
CCOC(=O)Nc1cccc(Cn2nc(-c3ccc(C(=O)NCCOC)cc3)ccc2=O)c1 [A3]
CCOC(=O)Nc1cccc(Cn2nc(-c3ccc(C(=O)NCCCO)cc3)ccc2=O)c1 [A5]
CCOC(=O)Nc1cccc(Cn2nc(-c3ccc(C(=O)NCC(O)CO)cc3)ccc2=O)c1 (stereo not shown) [A6]
CCOC(=O)Nc1cccc(Cn2nc(-c3ccc(C(=O)NCCS(C)(=O)=O)cc3)ccc2=O)c1 [A7]
CCOC(=O)CNC(=O)c1ccc(-c2ccc(=O)n(Cc3cccc(NC(=O)OCC)c3)n2)cc1 [A8]
CCOC(=O)CN(C)C(=O)c1ccc(-c2ccc(=O)n(Cc3cccc(NC(=O)OCC)c3)n2)cc1 [A9]
CCOC(=O)Nc1cccc(Cn2nc(-c3ccc(C(=O)NCCCn4ccnc4)cc3)ccc2=O)c1 [A10]
CCOC(=O)Nc1cccc(Cn2nc(-c3ccc(C(=O)NCCCCN(C)C)cc3)ccc2=O)c1 [A11]
CCOC(=O)Nc1cccc(Cn2nc(-c3ccc(C(=O)N(C)CCO)cc3)ccc2=O)c1 [A12]
CCOC(=O)CCNC(=O)c1ccc(-c2ccc(=O)n(Cc3cccc(NC(=O)OCC)c3)n2)cc1 [A13]
CCOC(=O)Nc1cccc(Cn2nc(-c3ccc(C(=O)NCCCN(C)C)cc3)ccc2=O)c1 [A14]
CCOC(=O)Nc1cccc(Cn2nc(-c3ccc(C(=O)NCCN(C)C)cc3)ccc2=O)c1 [A15]
CCOC(=O)Nc1cccc(Cn2nc(-c3ccc(C(=O)NCCCOC)cc3)ccc2=O)c1 [A16]
CCOC(=O)Nc1cccc(Cn2nc(-c3ccc(C(=O)NCCN4CCOCC4)cc3)ccc2=O)c1 [A17]
CCOC(=O)Nc1cccc(Cn2nc(-c3ccc(C(=O)NCCN4CCCCC4)cc3)ccc2=O)c1 [A18]
CCOC(=O)Nc1cccc(Cn2nc(-c3ccc(C(=O)N(C)CCN(CC)CC)cc3)ccc2=O)c1 [A19]
CCOC(=O)Nc1cccc(Cn2nc(-c3ccc(C(=O)NCCN(CC)CC)cc3)ccc2=O)c1 [A20]
CCOC(=O)Nc1cccc(Cn2nc(-c3ccc(C(=O)NCCNC(C)C)cc3)ccc2=O)c1 [A21]
CCOC(=O)Nc1cccc(Cn2nc(-c3ccc(C(=O)NCCCN4CCN(C)CC4)cc3)ccc2=O)c1 [A22]
CCOC(=O)Nc1cccc(Cn2nc(-c3ccc(C(=O)NCCCN4CCCC4)cc3)ccc2=O)c1 [A23]
CCOC(=O)Nc1cccc(Cn2nc(-c3ccc(C(=O)NCCCN4CCCC4=O)cc3)ccc2=O)c1 [A24]
CCOC(=O)Nc1cccc(Cn2nc(-c3ccc(C(=O)NCCCN(CC)CC)cc3)ccc2=O)c1 [A25]
CCOC(=O)Nc1cccc(Cn2nc(-c3ccc(C(=O)NCCCN4CCCCC4)cc3)ccc2=O)c1 [A26]
CCOC(=O)Nc1cccc(Cn2nc(-c3ccc(C(=O)NCCCN4CCOCC4)cc3)ccc2=O)c1 [A27]
CCOC(=O)Nc1cccc(Cn2nc(-c3ccc(C(=O)NCCCCN4CCCC4)cc3)ccc2=O)c1 [A28]
CCOC(=O)Nc1cccc(Cn2nc(-c3ccc(C(=O)NCCCCO)cc3)ccc2=O)c1 [A42]
CCOC(=O)Nc1cccc(Cn2nc(-c3cccc(C(=O)NCCCCNC(=O)OC(C)(C)C)c3)ccc2=O)c1 [A43, ethyl(3-{3-[3-(4-tert-butoxycarbonylaminobutylcarbamoyl)-phenyl]-6-oxo-6H-pyridazin-1-ylmethyl}phenyl)carbamate]
